Measured values: US7799781B2, “5,6,7,8-tetrahydropteridine derivatives as HSP90 inhibitors” (AstraZeneca AB, priority 2007, dated 2010)

Target: T1, HSP90α (Homo sapiens, UniProt P07900)
T1 construct: 6H is tagged HSP90α protein (amino acids 2-732) expressed in E. coli; 6His; made in house; host or cells: E. coli
Assay: Test (a) In Vitro Binding Assay (fluorescence polarisation, binding to the ATP pocket of HSP90α)
Settings: for IC50: FP probe displacement, geometric mean where tested more than once; for activity in the enzyme assay, test (a): verbal assessment
Experimental: Test (a) In Vitro Binding Assay
Test (a) measures the ability of a compound to bind to the ATP pocket of HSP90α. 6H is tagged HSP90α protein (amino acids 2-732) expressed in E. coli was purified and stored at −80° C. in aliquots. Assay measurements were performed in assay buffer comprising 20 mM HEPES pH 7.4, 50 mM KCl, 20 mM NaHMoO4, 0.01% Nonidet P40, 2 mM DTT and 0.1 mg/ml BSA. Following resuspension in DMSO, the FP probe 3-[[5-(5-ethyl-2,4-dihydroxy-phenyl)-4-(4-methoxyphenyl)2H-pyrazole-3-carbonyl]amino]propyl-Cy3B-amide; 14-(2-{[3-({[3-(5-ethyl-2,4-dihydroxyphenyl)-4-(4-methoxyphenyl)-1H-pyrazol-5-yl]carbonyl}amino)propyl]amino}-2-oxoethyl)-16,16,18,18-tetramethyl-2-sulfo-6,7,7a,8a,9,10,16,18-octahydrobenzo[2″,3″]indolizino [8″,7″:5′,6′]pyrano[3′,2′:3,4]pyrido[1,2-a]indol-5-ium) was diluted to a final concentration of 5 nM in assay buffer. Test compounds were prepared by dilution in 100% DMSO to give the appropriate dose range and dispensed into a 384 well assay plate as a 6X concentrate. Upon addition of recombinant HSP90α to a final assay concentration of 1 μg/ml, FP probe was added and plates incubated at room temperature for 1 to 4 hours. Final DMSO concentration was 1% in a total assay volume of 18 μl. Fluorescence Polarisation measurements were made using a Tecan Ultra plate reader using an excitation wavelength of 530 nm and an emission wavelength of 590 nm. Millipolarisation (mP) values were estimated using Xfluor software.
The data in the above table was generated in an assay substantially as described above in relation to in-vitro Binding Assay (a). Some of the compounds shown in the table were tested more than once in the assay. For those compounds the IC50 value shown is the geometric mean of the measured IC50 values. Therefore, as will be understood, the IC50 values quoted above are not absolute and further measurements of the IC50 values may result in a different mean IC50 value.

Row | Compound | IC50 [µM] | activity in the enzyme assay, test (a)
1 | COc1c(C)cnc(CN2CCN(C)c3cnc(N)nc32)c1C [Example 6.4, 8-[(4-methoxy-3,5-dimethylpyridin-2-yl)methyl]-5-methyl-5,6,7,8-tetrahydropteridin-2-amine] | 13 | 
2 | COc1c(C)cnc(CN2CC(=O)Nc3c(SC)nc(N)nc32)c1C [Example 9, 2-Amino-8-[(4-methoxy-3,5-dimethyl-pyridin-2-yl)methyl]-4-methylsulfanyl-5,7-dihydropteridin-6-one] | 1.39 | 
3 | CCC[C@@H]1C(=O)Nc2cnc(N)nc2N1Cc1ncc(C)c(OC)c1C [Example 7.4, (7R)-2-amino-8-[(4-methoxy-3,5-dimethyl-pyridin-2-yl)methyl]-7-propyl-7,8-dihydropteridin-6(5H)-one] | 1.8 | 
4 | COc1c(C)cnc(CN2c3nc(N)ncc3N(C)C[C@@H]2C)c1C [Example 6.1, (7S)-8-[(4-methoxy-3,5-dimethylpyridin-2-yl)methyl]-5,7-dimethyl-5,6,7,8-tetrahydropteridin-2-amine] | 152 | low activity
5 | COc1c(C)cnc(CN2CC(=O)N(C)c3cnc(N)nc32)c1C [Example 4.3, 2-amino-8-[(4-methoxy-3,5-dimethylpyridin-2-yl)methyl]-5-methyl-7,8-dihydropteridin-6(5H)-one] | 0.33 | 
6 | COc1c(C)cnc(CN2c3nc(N)ncc3NC[C@@H]2C)c1C [Example 5, (7S)-8-[(4-methoxy-3,5-dimethylpyridin-2-yl)methyl]-7-methyl-5,6,7,8-tetrahydropteridin-2-amine] | 81.1 | low activity
7 | COCCCN1C(=O)[C@@H](C)N(Cc2ncc(C)c(OC)c2C)c2nc(N)ncc21 [Example 10, (7R)-2-Amino-8-[(4-methoxy-3,5-dimethylpyridin-2-yl)methyl]-5-(3-methoxypropyl)-7-methyl-7,8-dihydropteridin-6(5H)-one] | 1.22 | 
8 | COc1c(C)cnc(CN2c3nc(N)ncc3NC(=O)[C@H]2C)c1C [Example 2.2, (7R)-2-amino-8-[(4-methoxy-3,5-dimethylpyridin-2-yl)methyl]-7-methyl-7,8-dihydropteridin-6(5H)-one] | 0.857 | 
9 | COc1c(C)cnc(CN2c3nc(N)ncc3NC(=O)[C@H]2CC(N)=O)c1C [Example 13, 2-{(7R)-2-amino-8-[(4-methoxy-3,5-dimethylpyridin-2-yl)methyl]-6-oxo-5,6,7,8-tetrahydropteridin-7-yl}acetamide] | 1.75 | 
10 | COc1c(C)cnc(CN2c3nc(N)ncc3NC(=O)[C@@H]2C)c1C [Example 1, (7S)-2-amino-8-[(4-methoxy-3,5-dimethylpyridin-2-yl)methyl]-7-methyl-7,8-dihydropteridin-6(5H)-one] | 10 | 
11 | COc1c(C)cnc(CN2c3nc(N)ncc3NC(=O)[C@H]2CC(C)C)c1C [Example 7.1, (7R)-2-amino-8-[(4-methoxy-3,5-dimethyl-pyridin-2-yl)methyl]-7-(2-methylpropyl)-7,8-dihydropteridin-6(5H)-one] | 1.94 | 
12 | COc1c(C)cnc(CN2c3nc(N)ncc3NC(=O)[C@H]2CC(=O)O)c1C [Example 12, {(7R)-2-amino-8-[(4-methoxy-3,5-dimethylpyridin-2-yl)methyl]-6-oxo-5,6,7,8-tetrahydropteridin-7-yl}acetic acid] | 7.34 | 

The remaining lines, values ahead:

Row | IC50 [µM] | activity in the enzyme assay, test (a) | Compound
13 | 1.48 |  | COc1c(C)cnc(CN2c3nc(N)ncc3N(CCCc3cccnc3)C(=O)[C@H]2C)c1C [Example 11.17, (7R)-2-amino-8-[(4-methoxy-3,5-dimethylpyridin-2-yl)methyl]-7-methyl-5-(3-pyridin-3-ylpropyl)-7,8-dihydropteridin-6(5H)-one]
14 | 1.94 |  | COCCCN1C(=O)CN(Cc2ncc(C)c(OC)c2C)c2nc(N)ncc21 [Example 11.1, 2-amino-8-[(4-methoxy-3,5-dimethylpyridin-2-yl)methyl]-5-(3-methoxypropyl)-7,8-dihydropteridin-6(5H)-one]
15 | 0.375 |  | COc1c(C)cnc(CN2c3nc(N)ncc3N(CCC(C)C)C(=O)[C@H]2C)c1C [Example 11.7, (7R)-2-amino-8-[(4-methoxy-3,5-dimethylpyridin-2-yl)methyl]-7-methyl-5-(3-methylbutyl)-7,8-dihydropteridin-6(5H)-one]
16 | 6.09 |  | COc1c(C)cnc(CN2c3nc(N)ncc3N(CCN3CCCC3)C(=O)[C@H]2C)c1C [Example 11.11, (7R)-2-amino-8-[(4-methoxy-3,5-dimethylpyridin-2-yl)methyl]-7-methyl-5-(2-pyrrolidin-1-ylethyl)-7,8-dihydropteridin-6(5H)-one]
17 | 0.0496 |  | CCCN1C(=O)CN(Cc2ncc(C)c(OC)c2C)c2nc(N)nc(Cl)c21 [Example 11.23, 2-amino-4-chloro-8-[(4-methoxy-3,5-dimethylpyridin-2-yl)methyl]-5-propyl-7,8-dihydropteridin-6(5H)-one]
18 | 1.62 |  | COc1c(C)cnc(CN2c3nc(N)ncc3NC(=O)[C@H]2CC(=O)NCCN(C)C)c1C [Example 14.2, 2-{(7R)-2-amino-8-[(4-methoxy-3,5-dimethylpyridin-2-yl)methyl]-6-oxo-5,6,7,8-tetrahydropteridin-7-yl}-N-[2-(dimethylamino)ethyl]acetamide]
19 | 7.83 |  | COc1c(C)cnc(CN2c3nc(N)ncc3N(CCN3CCNCC3)C(=O)[C@H]2C)c1C [Example 11.3, (7R)-2-amino-8-[(4-methoxy-3,5-dimethylpyridin-2-yl)methyl]-7-methyl-5-(2-piperazin-1-ylethyl)-7,8-dihydropteridin-6(5H)-one]
